Test results: ChEMBL document CHEMBL5321222, “N(14)-substituted evodiamine derivatives as dual topoisomerase 1/tubulin-Inhibiting anti-gastrointestinal tumor agents” (Eur J Med Chem, 2023)
The source made the active and inactive calls. The rule behind the calls is not given here.

Columns and labels:
SW480 = assay: Antiproliferative activity against human SW480 cells assessed as reduction in cell viability incubated for 72 hrs by MTT assay; format: functional, cell-based; details: SW480, 72 h
LoVo = assay: Antiproliferative activity against human LoVo cells assessed as reduction in cell viability incubated for 72 hrs by MTT assay; format: functional, cell-based
RKO [1] = assay: Antiproliferative activity against human RKO cells assessed as reduction in cell viability incubated for 72 hrs by MTT assay; format: functional, cell-based
HGC-27 = assay: Antiproliferative activity against human HGC-27 cells assessed as reduction in cell viability incubated for 72 hrs by MTT assay; format: functional, cell-based; details: HGC-27, 72 h
SGC-7901 = assay: Antiproliferative activity against human SGC-7901 cells assessed as reduction in cell viability incubated for 72 hrs by MTT assay; format: functional, cell-based; details: SGC-7901, 72 h
MGC-803 [2] = assay: Antiproliferative activity against human MGC-803 cells assessed as reduction in cell viability incubated for 72 hrs by MTT assay; format: functional, cell-based; details: MGC-803, 72 h
GES1 = assay: Antiproliferative activity against human GES1 cells assessed as reduction in cell viability incubated for 72 hrs by MTT assay; format: functional, cell-based; details: GES1, 72 h
[3] = biological target: T1, DNA topoisomerase 1 (Homo sapiens) (UniProt P11387); assay: Inhibition of topoisomerase 1 (unknown origin) at 200 uM using PBR322 DNA as substrate incubated for 30 mins by agarose gel electrophoresis
T1 sequence (whole entry): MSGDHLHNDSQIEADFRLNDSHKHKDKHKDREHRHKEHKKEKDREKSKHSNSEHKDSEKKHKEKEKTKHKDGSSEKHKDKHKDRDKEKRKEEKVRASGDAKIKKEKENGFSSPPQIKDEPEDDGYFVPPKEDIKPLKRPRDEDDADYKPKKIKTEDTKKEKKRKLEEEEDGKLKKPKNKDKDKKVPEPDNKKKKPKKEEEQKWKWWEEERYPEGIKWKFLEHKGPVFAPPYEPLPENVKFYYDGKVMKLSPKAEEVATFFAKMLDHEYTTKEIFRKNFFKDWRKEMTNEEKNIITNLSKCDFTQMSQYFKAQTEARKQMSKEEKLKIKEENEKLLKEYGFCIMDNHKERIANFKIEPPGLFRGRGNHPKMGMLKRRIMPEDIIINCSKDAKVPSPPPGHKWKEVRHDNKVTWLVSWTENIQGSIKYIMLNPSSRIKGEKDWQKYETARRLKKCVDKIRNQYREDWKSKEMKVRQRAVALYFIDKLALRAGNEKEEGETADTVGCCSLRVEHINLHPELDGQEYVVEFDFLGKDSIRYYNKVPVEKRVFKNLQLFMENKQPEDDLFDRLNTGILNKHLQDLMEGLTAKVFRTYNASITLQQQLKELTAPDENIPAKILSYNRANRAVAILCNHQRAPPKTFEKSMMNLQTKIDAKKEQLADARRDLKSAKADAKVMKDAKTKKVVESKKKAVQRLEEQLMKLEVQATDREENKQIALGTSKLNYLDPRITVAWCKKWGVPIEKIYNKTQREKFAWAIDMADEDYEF

MGC-803 [4] = assay: Induction of cell cycle arrest in human MGC-803 cells at 0.2 uM incubated for 24 hrs by propidium iodide staining based flow cytometry analysis; format: functional
MGC-803 [5] = assay: Inhibition of cell […] in human MGC-803 cells at 50 nM incubated for 24 hrs by scratch wound healing assay; format: functional, cell-based
RKO [6] = assay: Inhibition of cell migration in human RKO cells assessed as reduction in tumor wound healing incubated for 24 hrs by microscopic analysis; format: functional, cell-based; details: dose 10-90 nM
MGC-803 [7] = assay: Induction of apoptosis in human MGC-803 cells assessed as late apoptotic cells at 0.2 uM incubated for 24 hrs by propidium iodide and Annexin V/FITC staining based flow cytometry assay (reference value: 4.10%); format: functional
RKO [8] = assay: Induction of cell cycle arrest in human RKO cells at 0.2 uM incubated for 24 hrs by propidium iodide staining based flow cytometry analysis; format: functional
MGC-803 [9] = assay: Induction of apoptosis in human MGC-803 cells assessed as early apoptotic cells at 0.2 uM incubated for 24 hrs by propidium iodide and Annexin V/FITC staining based flow cytometry assay (reference value: 1.85%); format: functional
RKO [10] = assay: Induction of apoptosis in human RKO cells assessed as early apoptotic cells at 0.2 uM incubated for 24 hrs by propidium iodide and Annexin V/FITC staining based flow cytometry assay (reference value: 0.16%); format: functional
RKO [11] = assay: Induction of apoptosis in human RKO cells assessed as late apoptotic cells at 0.2 uM incubated for 24 hrs by propidium iodide and Annexin V/FITC staining based flow cytometry assay (reference value: 0.50%); format: functional
MGC-803 [12] = assay: Induction of morphological changes in human MGC-803 cells at 0.2 uM incubated for 24 hrs by Giemsa staining based micrscopic analysis; format: functional, cell-based
RKO [13] = assay: Induction of morphological changes in human RKO cells at 0.2 uM incubated for 24 hrs by Giemsa staining based micrscopic analysis; format: functional, cell-based

Structure (SMILES) | IC50 (SW480) | IC50 (LoVo) | IC50 (SGC-7901) | IC50 (MGC-803 [2]) | inhibition [3] | IC50 (RKO [1]) | IC50 (HGC-27) | IC50 (GES1) | Activity (MGC-803 [4]) | inhibition (MGC-803 [5]) | inhibition (RKO [6]) | Activity (MGC-803 [7]) | Activity (RKO [8]) | Activity (MGC-803 [9]) | Activity (RKO [10]) | Activity (RKO [11]) | Activity (MGC-803 [12]) | Activity (RKO [13])
O=C1c2ccccc2N(CC2CC2)C2c3[nH]c4ccccc4c3CCN12 (centres undefined) | 1.84 µM | 0.44 µM | 0.22 µM | 0.1 µM | Active | 0.42 µM | 1.85 µM | 0.21 µM | – | – | – | – | – | – | – | – | – | –
O=C1c2ccccc2N(CCBr)C2c3[nH]c4ccccc4c3CCN12 (centres undefined) | 0.97 µM | 1.34 µM | 1.06 µM | 0.55 µM | – | 0.98 µM | 2.05 µM | 1.34 µM | – | – | – | – | – | – | – | – | – | –
CCCCCN1c2ccccc2C(=O)N2CCc3c([nH]c4ccccc34)C21 (centres undefined) | 4.41 µM | > 30 µM | 1.22 µM | 0.75 µM | – | 1.87 µM | 7.74 µM | 2.82 µM | – | – | – | – | – | – | – | – | – | –
C=C(CN1c2ccccc2C(=O)N2CCc3c([nH]c4ccccc34)C21)C(=O)OC (centres undefined) | > 30 µM | > 30 µM | > 30 µM | 19.7 µM | – | > 30 µM | > 30 µM | > 30 µM | – | – | – | – | – | – | – | – | – | –
C/C=C/C(=O)N1c2ccccc2C(=O)N2CCc3c([nH]c4ccccc34)C21 (centres undefined) | 6.99 µM | > 30 µM | 9.59 µM | 10.3 µM | – | 10.2 µM | 4.37 µM | 13.6 µM | – | – | – | – | – | – | – | – | – | –
O=C1c2ccccc2N(CCC2OCCO2)C2c3[nH]c4ccccc4c3CCN12 (centres undefined) | > 30 µM | > 30 µM | 5.63 µM | 15.7 µM | – | > 30 µM | > 30 µM | > 30 µM | – | – | – | – | – | – | – | – | – | –

Now from value to molecule, other results behind:

IC50 (SW480) | IC50 (LoVo) | IC50 (SGC-7901) | IC50 (MGC-803 [2]) | inhibition [3] | Structure (SMILES) | IC50 (RKO [1]) | IC50 (HGC-27) | IC50 (GES1) | Activity (MGC-803 [4]) | inhibition (MGC-803 [5]) | inhibition (RKO [6]) | Activity (MGC-803 [7]) | Activity (RKO [8]) | Activity (MGC-803 [9]) | Activity (RKO [10]) | Activity (RKO [11]) | Activity (MGC-803 [12]) | Activity (RKO [13])
1.22 µM | 1.5 µM | 0.64 µM | 0.21 µM | – | C#CCN1c2ccccc2C(=O)N2CCc3c([nH]c4ccccc34)C21 (centres undefined) | 0.85 µM | 1.52 µM | 1.2 µM | – | – | – | – | – | – | – | – | – | –
> 30 µM | 24.2 µM | 17.7 µM | 8.52 µM | Active | CN1c2ccccc2C(=O)N2CCc3c([nH]c4ccccc34)C21 (racemic) | 29.7 µM | > 30 µM | > 30 µM | inactive | inactive | inactive | 5.24% | inactive | 3.15% | 4.63% | 7.71% | inactive | inactive
> 30 µM | 19.7 µM | 5.96 µM | 4.49 µM | – | COc1ccc(CN2c3ccccc3C(=O)N3CCc4c([nH]c5ccccc45)C32)cc1 (centres undefined) | 5.51 µM | 17.8 µM | 8.53 µM | – | – | – | – | – | – | – | – | – | –
1.03 µM | 1.99 µM | 0.46 µM | 0.16 µM | – | CCCCN1c2ccccc2C(=O)N2CCc3c([nH]c4ccccc34)C21 (centres undefined) | 0.45 µM | 1.7 µM | 0.5 µM | – | – | – | – | – | – | – | – | – | –
> 30 µM | > 30 µM | 6.66 µM | > 30 µM | – | COC(=O)CN1c2ccccc2C(=O)N2CCc3c([nH]c4ccccc34)C21 (centres undefined) | 23.4 µM | > 30 µM | > 30 µM | – | – | – | – | – | – | – | – | – | –
